≈ marks a conversion by molar mass, not a printed value.
Assays:
[1] = test system: Staphylococcus aureus; assay: Antibacterial activity against Staphylococcus aureus ATCC 29213 assessed as inhibition of growth visually by CLSI method; assay type: functional
[2] = test system: Staphylococcus aureus; assay: Antibacterial activity against methicillin-resistant Staphylococcus aureus NCTC 10442 assessed as inhibition of growth visually by CLSI method; assay type: functional
[3] = test system: Staphylococcus aureus; assay: Antibacterial activity against vancomycin intermediate susceptibility Staphylococcus aureus Mu50 assessed as inhibition of growth visually by CLSI method; assay type: functional
[4] = test system: Enterococcus faecalis; assay: Antibacterial activity against Enterococcus faecalis ATCC 29212 assessed as inhibition of growth visually by CLSI method; assay type: functional
[5] = test system: Enterococcus faecalis; assay: Antibacterial activity against vancomycin-resistant Enterococcus faecalis ATCC 51299 assessed as inhibition of growth visually by CLSI method; assay type: functional
[6] = test system: Streptococcus pneumoniae; assay: Antibacterial activity against Streptococcus pneumoniae ATCC 49619 assessed as inhibition of growth visually by CLSI method; assay type: functional
[7] = test system: Escherichia coli; assay: Antibacterial activity against Escherichia coli ATCC 10418 assessed as inhibition of growth visually by CLSI method; assay type: functional
[8] = test system: Clostridioides difficile; assay: Antibacterial activity against Clostridioides difficile ATCC 700057 assessed as inhibition of growth visually preincubated for 2 to 4 hrs measured after 48 hrs by CLSI method; assay type: functional; details: time hrs <=52
[9] = test system: Clostridioides difficile; assay: Antibacterial activity against Clostridioides difficile NSW 132 (RT027) assessed as inhibition of growth visually preincubated for 2 to 4 hrs measured after 48 hrs by CLSI method; assay type: functional; details: time hrs <=52
[10] = test system: Staphylococcus aureus; assay: Antimicrobial activity against methicillin resistant Staphylococcus aureus ATCC 43300 assessed as growth inhibition incubated for 18 hrs; assay type: functional
[11] = test system: Pseudomonas aeruginosa; assay: Antimicrobial activity against Pseudomonas aeruginosa ATCC 27853 assessed as growth inhibition incubated for 18 hrs; assay type: functional
[12] = test system: Klebsiella pneumoniae; assay: Antimicrobial activity against multidrug-resistant Klebsiella pneumoniae ATCC 700603 assessed as growth inhibition incubated for 18 hrs; assay type: functional
[13] = test system: Acinetobacter baumannii; assay: Antimicrobial activity against Acinetobacter baumannii ATCC 19606 assessed as growth inhibition incubated for 18 hrs; assay type: functional
[14] = test system: Escherichia coli; assay: Antimicrobial activity against Escherichia coli ATCC 25922 assessed as growth inhibition incubated for 18 hrs; assay type: functional
[15] = test system: Candida albicans; assay: Antifungal activity against Candida albicans ATCC 90028 assessed as growth inhibition incubated for 36 hrs; assay type: functional; details: 28A ATCC 90028
[16] = test system: Cryptococcus neoformans; assay: Antifungal activity against Cryptococcus neoformans H99 ATCC 208821 assessed as growth inhibition incubated for 36 hrs; assay type: functional; details: var. grubii H99 ATCC 208821
[17] = Cytotoxicity against human HEK-293 cells incubated for 23 hrs by CO-ADD method; assay type: cell-based, HEK293
[18] = Hemolytic activity in human RBC assessed as hemolysis incubated for 1 hr by CO-ADD method; assay type: ADME, cell-based, Erythrocyte; details: red blood cells (erythrocytes)
[19] = Hemolytic activity in sheep RBC assessed as hemolysis at 5 microg/ml incubated for 2 hrs by CO-ADD method; assay type: ADME, cell-based, Ovis aries, Erythrocyte; details: red blood cells (erythrocytes), at 5 µg/mL, read-out: Activity
[20] = Hemolytic activity in sheep RBC assessed as hemolysis at 50 microg/ml incubated for 2 hrs; assay type: ADME, cell-based, Ovis aries, Erythrocyte; details: red blood cells (erythrocytes), at 50 µg/mL, read-out: Activity
[21] = Cytotoxicity against human HEK-293 cells assessed as maximal inhibition at <= 32 ug/ml incubated for 23 hrs by CO-ADD method; assay type: cell-based, HEK293; details: dose <=32 µg/ml, read-out: Imax
[22] = Hemolytic activity in human RBC assessed as maximal hemolysis at <= 32 ug/ml incubated for 1 hr by CO-ADD method; assay type: cell-based, Erythrocyte; details: red blood cells (erythrocytes), dose <=32 µg/ml, read-out: Activity

## CC(C)CCOc1ccccc1-c1cccc(OCc2cn(C[C@@H](CCCCN)NC(=O)[C@@H](CCCNC(=N)N)n3cc(CC4CCCCC4)nn3)nn2)c1.Cl.Cl
[1]
  MIC: 4 µg/mL
[2]
  MIC: 4 µg/mL
[3]
  MIC: 2 µg/mL
[4]
  MIC: 4 µg/mL
[5]
  MIC: 8 µg/mL
[6]
  MIC: 2 µg/mL
[7]
  MIC: 4 µg/mL
[8]
  MIC: 16 µg/mL
[9]
  MIC: 8 µg/mL
[10]
  MIC80: ≤ 0.25 µg/mL
[11]
  MIC80: 2 µg/mL
[12]
  MIC80: > 32 µg/mL
[13]
  MIC80: 16 µg/mL
[14]
  MIC80: 2 µg/mL
[15]
  MIC80: 16 µg/mL
[16]
  MIC80: > 32 µg/mL
[17]
  CC50 at 23 h: > 32 µg/mL
[18]
  HC50 at 1 h: > 32 µg/mL
[19]
  hemolysis at 2 h, 5 microg/ml: 1.4%
[20]
  hemolysis at 2 h, 50 microg/ml: 38.2%
[21]
  Emax at 23 h: 36%
[22]
  hemolysis at 1 h: 81%

## CC/C(=C(\c1ccccc1)c1ccc(OCCN(C)C)cc1)c1ccccc1 [TAMOXIFEN]
[17]
  CC50 at 23 h: 9 µg/mL (≈ 24.2 µM)

## COLISTIN
[7]
  MIC: 1 µg/mL
[11]
  MIC=>80: 0.25 µg/mL
[12]
  MIC=>80: 0.25 µg/mL
[13]
  MIC=>80: 0.25 µg/mL
[14]
  MIC=>80: 0.125 µg/mL

## CC(C)CCOc1ccccc1-c1ccc(OCc2cn(C[C@@H](CCCCN)NC(=O)[C@@H](CCCNC(=N)N)n3cc(CC4CCCCC4)nn3)nn2)cc1.Cl.Cl
[1]
  MIC: 2 µg/mL
[2]
  MIC: 4 µg/mL
[3]
  MIC: 4 µg/mL
[4]
  MIC: 4 µg/mL
[5]
  MIC: 16 µg/mL
[6]
  MIC: 1 µg/mL
[7]
  MIC: 8 µg/mL
[8]
  MIC: 16 µg/mL
[9]
  MIC: 8 µg/mL
[10]
  MIC80: ≤ 0.25 µg/mL
[11]
  MIC80: 8 µg/mL
[12]
  MIC80: 32 µg/mL
[13]
  MIC80: 4 µg/mL
[14]
  MIC80: 8 µg/mL
[15]
  MIC80: 16 µg/mL
[16]
  MIC80: > 32 µg/mL
[17]
  CC50 at 23 h: > 32 µg/mL
[18]
  HC50 at 1 h: > 32 µg/mL
[19]
  hemolysis at 2 h, 5 microg/ml: 2%
[20]
  hemolysis at 2 h, 50 microg/ml: 66.4%
[21]
  Emax at 23 h: 40%
[22]
  hemolysis at 1 h: 82%

## C[C@@H]1[C@H](O)[C@@H](C)/C=C/C=C/C=C/C=C/C=C/C=C/C=C/[C@H](O[C@@H]2O[C@H](C)[C@@H](O)[C@H](N)[C@@H]2O)C[C@@H]2O[C@](O)(C[C@@H](O)C[C@@H](O)[C@H](O)CC[C@@H](O)C[C@@H](O)CC(=O)O[C@H]1C)C[C@H](O)[C@H]2C(=O)O [AMPHOTERICIN B]
[15]
  MIC80: 1.56 µg/mL (≈ 1.69 µM)
[16]
  MIC80: 1.56 µg/mL (≈ 1.69 µM)

## CC(C)CCOc1cccc(-c2ccccc2OCc2cn(C[C@@H](CCCCN)NC(=O)[C@@H](CCCNC(=N)N)n3cc(CC4CCCCC4)nn3)nn2)c1.Cl.Cl
[1]
  MIC: 2 µg/mL
[2]
  MIC: 2 µg/mL
[3]
  MIC: 2 µg/mL
[4]
  MIC: 2 µg/mL
[5]
  MIC: 8 µg/mL
[6]
  MIC: 1 µg/mL
[7]
  MIC: 2 µg/mL
[8]
  MIC: 16 µg/mL
[9]
  MIC: 16 µg/mL
[10]
  MIC80: ≤ 0.25 µg/mL
[11]
  MIC80: 8 µg/mL
[12]
  MIC80: > 32 µg/mL
[13]
  MIC80: 4 µg/mL
[14]
  MIC80: 8 µg/mL
[15]
  MIC80: 32 µg/mL
[16]
  MIC80: > 32 µg/mL
[17]
  CC50 at 23 h: > 32 µg/mL
[18]
  HC50 at 1 h: > 32 µg/mL
[19]
  hemolysis at 2 h, 5 microg/ml: 2.6%
[20]
  hemolysis at 2 h, 50 microg/ml: 72.1%
[21]
  Emax at 23 h: 28%
[22]
  hemolysis at 1 h: 38%

## CCCCCCCCCCCC(=O)N(CCCCCCNC(=O)[C@@H](N)CCCCN)CCCCCCNC(=O)[C@@H](N)CCCCN
[7]
  MIC: 3.1 µg/mL (≈ 4.74 µM)
[10]
  MIC: 3.1 µg/mL (≈ 4.74 µM)
[18]
  HC50 at 1 h: 860 µg/mL

## OC(Cn1cncn1)(Cn1cncn1)c1ccc(F)cc1F [FLUCONAZOLE]
[15]
  MIC80: 0.125 µg/mL (≈ 0.408 µM)
[16]
  MIC80: 8 µg/mL (≈ 26.1 µM)
